Results from patent US20130030000A1, “PHARMACEUTICAL COMPOSITIONS FOR THE TREATMENT OF PAIN AND OTHER INDICATIONS” (priority 2010, published 2013).
Where a name gives a salt, the structure may show the parent alone.

Target: T1, Human FAAH (Homo sapiens, UniProt O00519)
T1 construct: The full length FAAH was subcloned into the mammalian expression vector, peDEF.neo
T1 sequence (O00519 1-579): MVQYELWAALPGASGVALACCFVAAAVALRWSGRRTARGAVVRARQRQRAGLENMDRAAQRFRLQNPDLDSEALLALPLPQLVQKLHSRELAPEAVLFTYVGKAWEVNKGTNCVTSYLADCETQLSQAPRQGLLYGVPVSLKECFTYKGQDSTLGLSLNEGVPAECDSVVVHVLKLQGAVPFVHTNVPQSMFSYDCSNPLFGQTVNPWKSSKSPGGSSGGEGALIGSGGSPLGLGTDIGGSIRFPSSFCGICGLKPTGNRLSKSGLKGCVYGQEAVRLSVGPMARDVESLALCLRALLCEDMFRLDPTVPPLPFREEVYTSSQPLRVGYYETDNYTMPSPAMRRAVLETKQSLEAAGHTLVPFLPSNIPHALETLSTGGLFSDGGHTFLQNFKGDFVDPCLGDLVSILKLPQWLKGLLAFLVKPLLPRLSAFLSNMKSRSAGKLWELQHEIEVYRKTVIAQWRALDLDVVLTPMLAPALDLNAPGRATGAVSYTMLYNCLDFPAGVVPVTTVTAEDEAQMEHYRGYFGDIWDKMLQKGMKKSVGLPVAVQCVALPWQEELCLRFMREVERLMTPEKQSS
Test: Human FAAH lysate assay (CHO cell lysate expressing FAAH, AAMCA or 3H-anandamide hydrolysis)
Assay type: biochemical
Details: B series; read-out: Human FAAH lysate assay: IC50
Source text: To assist in assay development stable cell lines for human, murine and rat full length FAAH were developed. […] The full length FAAH was subcloned into the mammalian expression vector, peDEF.neo, using XbaI and EcoRI restriction sites and used for stable cell line generation.
CHO cells expressing FAAH were used to prepare either crude cell lysate or microsome fractions. To harvest cells, tissue culture media was decanted, the monolayer washed three times with Ca^++Mg^++ free PBS and cells recovered after […] in enzyme free dissociation media (Millipore Corp, Billerica, Mass.). Cells were collected by centrifuging at 2000 rpm for 15 min. and the cell pellet re-suspended with 50 mM HEPES (pH 7.4) containing 1 mM EDTA and the protease inhibitors aprotinin (1 mg/ml) and leupeptin (100 μM). The suspension was sonicated at 4° C. and the cell lysate recovered after centrifuging at 12,000×g (14,600 rpm, SS34 rotor) for 20 min at 4° C. to form a crude pellet of cell debris, nuclei, peroxisomes, lysosomes, and mitochondria; the supernatant or cell lysate was used for FAAH enzyme assay. In some cases, microsomes fractions enriched in FAAH were prepared by centrifuging the cell lysate further at 27,000 rpm (100,000×g) in SW28 rotor for 50 minutes at 4° C. The pellet containing FAAH-enriched microsomes was re-suspend in 50 mM HEPES, (pH 7,4) 1 mM EDTA, and any remaining DNA sheared by passage of material through a 23 gauge needle and aliquots of enzyme were store at −80° C. prior to use.
Assays are performed on either cell lysate or microsome fractions prepared as described or in whole cell format employing either the fluorescent substrate AAMCA (Cayman chemical, Ann Arbor, Mich.,) or ^3H-anandamide ([ETHANOLAMINE-1-3H] American Radiolabeled Chemicals; 1 mCi/ml). The cell lysate or microsome assay is performed in Costar black wall, clear bottom plates by adding FAAH_CHO (whole cell, cell lysate or microsome) in assay buffer (50 mM Phosphate, pH 8.0, 1 mM EDTA, 200 mM KCl, 0.2% glycerol, 0.1% fatty acid free BSA) to each well, followed by either DMSO or compound and allowed to incubate at 22-25° C. for fifteen minutes. AAMCA substrate was used to achieve a final concentration of 1 μM and reaction allowed to proceed at room temperature for 1-3 hours. […] Whole cell assay is conducted with cells harvested after rinsing tissue culture flasks three times with Ca^++Mg^++ free PBS, incubating for 10 mm in Enzyme free dissociation media and centrifuging for 5 minutes at 1,000 rpm in table top centrifuge. Cells are resuspended in assay buffer at desired cell number in (4×10^4 cells/assay in 96-well format; 1×10^4 cells/assay in 384-well format) and assayed as described.
Alternatively, assays are performed using anandamide [ethanolamine 1-^3H] (specific activity of 10 Ci/mmol) diluted with cold anandamide to achieve a final assay concentration of 1 μM anandamide (˜50,000 cpm). Enzyme (CHO cell lysate, brain or liver homogenate) is incubated in assay buffer (50 mM Phosphate, pH 8.0, 1 mM EDTA, 200 mM KCl, 0.2% glycerol, 0.1% fatty acid free BSA) with inhibitor at 25° C. for 30 minutes. The reaction was terminated by addition of 2 volumes of chloroform:methanol (1:1) and mixed by vortexing. Following a centrifugation step, 2000 rpm for 10 min. at room temperature, the aqueous phase containing the released […] was recovered and quantitated by liquid scintillation as a reflection of FAAH enzyme activity.

In order of rising IC50:
1. Cn1cnc(-c2ccc([C@H]3C[C@@H]3C(=O)NCCF)cc2)c1Sc1ccc(Cl)cn1 [Example 1013, (1S,2S)-2-(4-{5-[(5-Chloropyridin-2-yl)thio]-1-methyl-1H-imidazol-4-yl}phenyl)-N-(2-fluoroethyl)cyclopropanecarboxamide]  1.5 nM
2. Cn1cnc(-c2ccc([C@H]3C[C@@H]3C(C)(C)O)cc2)c1Sc1ccc(Cl)cn1 [Example 22B, 2-[(1S,2S)-2-(4-{5-[(5-Chloropyridin-2-yl)thio]-1-methyl-1H-imidazol-4-yl}phenyl)cyclopropyl]propan-2-ol]  8.7 nM
3. COC[C@H]1C[C@@H]1c1ccc(-c2ncn(C)c2Sc2ccc(Cl)cn2)cc1 [Example 24B, 5-Chloro-2-[(4-{4-[(1S,2S)-2-(methoxymethyl)cyclopropyl]phenyl}-1-methyl-1H-imidazol-5-yl)thio]pyridine]  35.5 nM
4. Cn1cnc(-c2ccc([C@H]3C[C@@H]3COCCF)cc2)c1Sc1ccc(Cl)cn1 [Example 25B, 5-Chloro-2-{[4-(4-{(1S,2S)-2-[(2-fluoroethoxy)methyl]cyclopropyl}phenyl)-1-methyl-1H-imidazol-5-yl]thio}pyridine]  69.3 nM
5. Cn1cnc(-c2ccc([C@H]3C[C@@H]3c3noc(=O)[nH]3)cc2)c1Sc1ccc(Cl)cn1 [Example 36B, 5-[(5-chloropyridin-2-yl)thio]-1-methyl-4-{4-[(1S,2S)-2-(5-oxo-4,5-dihydro-1,2,4-oxadiazol-3-yl)cyclopropyl]phenyl}-1H-imidazol-3-ium trifluoroacetate]  95.4 nM
6. Cn1cnc(-c2ccc([C@H]3C[C@@H]3c3n[nH]c(=O)[nH]3)cc2)c1Sc1ccc(Cl)cn1 [Example 33B, 5-[(1S,2S)-2-(4-{5-[(5-chloropyridin-2-yl)thio]-1-methyl-1H-imidazol-4-yl}phenyl)cyclopropyl]-2,4-dihydro-3H-1,2,4-triazol-3-one]  545 nM
7. CN(C)C(=O)[C@H]1C[C@@H]1c1ccc(-c2nc[nH]c2Sc2ccc(Cl)cn2)cc1 [Example 20B, (1S,2S)-2-(4-{5-[(5-Chloropyridin-2-yl)thio]-1H-imidazol-4-yl}phenyl)-N,N-dimethylcyclopropanecarboxamide]  650 nM
8. Cn1cnc(-c2ccc([C@H]3C[C@@H]3c3n[nH]c(=S)o3)cc2)c1Sc1ccc(Cl)cn1 [Example 31B, 5-[(1S,2S)-2-(4-{5-[(5-chloropyridin-2-yl)thio]-1-methyl-1H-imidazol-4-yl}phenyl)cyclopropyl]-1,3,4-oxadiazole-2(3H)-thione]  677 nM

Same assay, conditions: tables of the B series; read-out: hFAAH lysate IC50

In order of rising IC50:
1. Cn1cnc(-c2ccc(C3CC3C(N)=O)cc2)c1Sc1ccc(Cl)cn1 (stereo not shown) [Example 4B]  2.6 nM
2. CC(C)NC(=O)C1CC1c1ccc(-c2ncn(C)c2Sc2ccc(Cl)cn2)cc1 (stereo not shown) [Example 2B]  6.3 nM
3. COc1cnc(Sc2c(-c3ccc([C@H]4C[C@@H]4c4n[nH]c(=O)o4)cc3)ncn2C)nc1 [Example 40B]  33 nM

Test system: Complete Freunds Adjuvant model of inflammatory pain
Test: Combination study: isobolographic analysis in the Complete Freunds Adjuvant model of inflammatory pain
Assay type: in vivo
Details: rat, PO, etoricoxib:Compound A dose ratios 1:1, 0.3:1 and 3:1
Procedure: Etoricoxib and Compound A were tested in PO dose ratios of 1:1, 0.3:1, and 3:1.

In the case of `CC(C)(O)c1ccc(-c2nc(-c3ccc(F)c(F)c3)oc2Sc2ccc(Cl)cn2)cn1` [compound A], the “Interaction of analgesic effect against inflammatory pain when co-dosed (isobologram)” value is reported as “additive”.
`Cc1ccc(-c2ncc(Cl)cc2-c2ccc(S(C)(=O)=O)cc2)cn1` [etoricoxib, reference compound] was tested, and the “Interaction of analgesic effect against inflammatory pain when co-dosed (isobologram)” value was “additive”.
